Columns and labels:
[1] = system: rice (Oryza sativa); test: Test B flooded paddy test, visual rating 0-100 (0 no effect, 100 complete control); conditions: Flood, 250 g ai/ha, applied to paddy water, rated after 13 to 15 days
[2] = system: ragweed (common ragweed, Ambrosia elatior); test: Test A preemergence, visual injury rating 0-100; assay type: in vivo
[3] = system: kochia (Kochia scoparia); test: Test A preemergence, visual injury rating 0-100; assay type: in vivo
[4] = system: foxtail, green (green foxtail, Setaria viridis); test: Test A preemergence, visual injury rating 0-100; assay type: in vivo
[5] = system: ryegrass, Italian (Italian ryegrass, Lolium multiflorum); test: Test A preemergence, visual injury rating 0-100; assay type: in vivo
[6] = system: pigweed (Amaranthus retroflexus); test: Test A preemergence, visual injury rating 0-100; assay type: in vivo
[7] = system: wheat (Triticum aestivum); test: Test A postemergence, visual injury rating 0-100; assay type: in vivo; conditions: 0 to 100 scale
[8] = system: ragweed (common ragweed, Ambrosia elatior); test: Test A postemergence, visual injury rating 0-100; assay type: in vivo; conditions: 0 to 100 scale
[9] = system: kochia (Kochia scoparia); test: Test A postemergence, visual injury rating 0-100; assay type: in vivo; conditions: 0 to 100 scale
[10] = system: barnyardgrass (Echinochloa crus-galli); test: Test A postemergence, visual injury rating 0-100; assay type: in vivo; conditions: 0 to 100 scale
[11] = system: foxtail, green (green foxtail, Setaria viridis); test: Test A postemergence, visual injury rating 0-100; assay type: in vivo; conditions: 0 to 100 scale
[12] = system: galium (catchweed bedstraw, Galium aparine); test: Test A postemergence, visual injury rating 0-100; assay type: in vivo; conditions: 0 to 100 scale
[13] = system: corn (Zea mays); test: Test A postemergence, visual injury rating 0-100; assay type: in vivo; conditions: 0 to 100 scale
[14] = system: blackgrass (Alopecurus myosuroides); test: Test A postemergence, visual injury rating 0-100; assay type: in vivo; conditions: 0 to 100 scale
[15] = system: ryegrass, Italian (Italian ryegrass, Lolium multiflorum); test: Test A postemergence, visual injury rating 0-100; assay type: in vivo; conditions: 0 to 100 scale
[16] = system: pigweed (Amaranthus retroflexus); test: Test A postemergence, visual injury rating 0-100; assay type: in vivo; conditions: 0 to 100 scale
[17] = system: barnyardgrass (Echinochloa crus-galli); test: Test A preemergence, visual injury rating 0-100 (0 no effect, 100 complete control); assay type: in vivo; conditions: for Barnyardgrass plant response rating (0 to 100 scale): 125 g ai/ha; for Barnyardgrass plant response rating: 500 g ai/ha, 0 to 100 scale
[18] = system: barnyardgrass (Echinochloa crus-galli); test: Test B flooded paddy test, visual rating 0-100; conditions: Flood, 250 g ai/ha, applied to paddy water, rated after 13 to 15 days
[19] = system: ducksalad (Heteranthera limosa); test: Test B flooded paddy test, visual rating 0-100; conditions: Flood, 250 g ai/ha, applied to paddy water, rated after 13 to 15 days

| SMILES | Rice plant response rating (0 to 100 scale) [1] | Ragweed plant response rating (0 to 100 scale) ([2]; 125 g ai/ha) | Kochia plant response rating (0 to 100 scale) ([3]; 125 g ai/ha) | Foxtail, Green plant response rating (0 to 100 scale) ([4]; 125 g ai/ha) | Ryegrass, Italian plant response rating (0 to 100 scale) ([5]; 125 g ai/ha) | Pigweed plant response rating (0 to 100 scale) ([6]; 125 g ai/ha) | Wheat plant response rating ([7]; 125 g ai/ha) | Wheat plant response rating ([7]; 500 g ai/ha) | Ragweed plant response rating ([8]; 125 g ai/ha) | Ragweed plant response rating ([8]; 500 g ai/ha) | Kochia plant response rating ([9]; 125 g ai/ha) | Kochia plant response rating ([9]; 500 g ai/ha) | Barnyardgrass plant response rating ([10]; 125 g ai/ha) | Barnyardgrass plant response rating ([10]; 500 g ai/ha) | Foxtail, Green plant response rating ([11]; 125 g ai/ha) | Foxtail, Green plant response rating ([11]; 500 g ai/ha) | Galium plant response rating ([12]; 125 g ai/ha) | Galium plant response rating ([12]; 500 g ai/ha) | Corn plant response rating ([13]; 125 g ai/ha) | Corn plant response rating ([13]; 500 g ai/ha) | further results |
| --- | --- | --- | --- | --- | --- | --- | --- | --- | --- | --- | --- | --- | --- | --- | --- | --- | --- | --- | --- | --- | --- |
| CC1=[N+]([O-])C(C(=O)Nc2ccccc2C#N)C(c2ccc(C(F)(F)F)cc2)C1 (racemic) [Compound 32] | 0 | 70 | 0 | 10 | 10 | 0 | 0 | 0 | 0 | 20 | 0 | 20 | 20 | 40 | 20 | 50 | 70 | 80 | 10 | 50 | Ragweed plant response rating (0 to 100 scale) ([2]; 500 g ai/ha): 100; Kochia plant response rating (0 to 100 scale) ([3]; 500 g ai/ha): 70; Foxtail, Green plant response rating (0 to 100 scale) ([4]; 500 g ai/ha): 100; Ryegrass, Italian plant response rating (0 to 100 scale) ([5]; 500 g ai/ha): 10; Pigweed plant response rating (0 to 100 scale) ([6]; 500 g ai/ha): 80; Blackgrass plant response rating ([14]; 125 g ai/ha): 0; Blackgrass plant response rating ([14]; 500 g ai/ha): 20; Ryegrass, Italian plant response rating ([15]; 125 g ai/ha): 0; Ryegrass, Italian plant response rating ([15]; 500 g ai/ha): 0; Pigweed plant response rating ([16]; 125 g ai/ha): 0; Pigweed plant response rating ([16]; 500 g ai/ha): 20; Barnyardgrass plant response rating (0 to 100 scale) [17]: 0; Barnyardgrass plant response rating [17]: 100; Barnyardgrass plant response rating (0 to 100 scale) [18]: 0; Ducksalad plant response rating (0 to 100 scale) [19]: 0 |
| CC1=[N+]([O-])C(C(=O)Nc2ccccc2C(F)(F)F)C(c2ccc(C(F)(F)F)cc2)C1 (racemic) [Compound 33] | 0 | 70 | 0 | 50 | 0 | 0 | 0 | 0 | 0 | 40 | 0 | 0 | 0 | 40 | 0 | 70 | 70 | 70 | 10 | 30 | Ragweed plant response rating (0 to 100 scale) ([2]; 500 g ai/ha): 80; Kochia plant response rating (0 to 100 scale) ([3]; 500 g ai/ha): 70; Foxtail, Green plant response rating (0 to 100 scale) ([4]; 500 g ai/ha): 100; Ryegrass, Italian plant response rating (0 to 100 scale) ([5]; 500 g ai/ha): 20; Pigweed plant response rating (0 to 100 scale) ([6]; 500 g ai/ha): 50; Blackgrass plant response rating ([14]; 125 g ai/ha): 0; Blackgrass plant response rating ([14]; 500 g ai/ha): 0; Ryegrass, Italian plant response rating ([15]; 125 g ai/ha): 0; Ryegrass, Italian plant response rating ([15]; 500 g ai/ha): 0; Pigweed plant response rating ([16]; 125 g ai/ha): 0; Pigweed plant response rating ([16]; 500 g ai/ha): 20; Barnyardgrass plant response rating (0 to 100 scale) [17]: 90; Barnyardgrass plant response rating [17]: 90; Barnyardgrass plant response rating (0 to 100 scale) [18]: 20; Ducksalad plant response rating (0 to 100 scale) [19]: 0 |
| CC1=[N+]([O-])C(C(=O)Nc2cccnc2F)C(c2ccc(C(F)(F)F)cc2)C1 (racemic) [Compound 41] | 0 | 80 | 0 | 80 | 10 | 90 | 0 | 30 | 0 | 40 | 0 | 20 | 30 | 90 | 40 | 80 | 60 | 70 | 0 | 0 | Ragweed plant response rating (0 to 100 scale) ([2]; 500 g ai/ha): 100; Kochia plant response rating (0 to 100 scale) ([3]; 500 g ai/ha): 90; Foxtail, Green plant response rating (0 to 100 scale) ([4]; 500 g ai/ha): 100; Ryegrass, Italian plant response rating (0 to 100 scale) ([5]; 500 g ai/ha): 70; Pigweed plant response rating (0 to 100 scale) ([6]; 500 g ai/ha): 90; Blackgrass plant response rating ([14]; 125 g ai/ha): 30; Blackgrass plant response rating ([14]; 500 g ai/ha): 50; Ryegrass, Italian plant response rating ([15]; 125 g ai/ha): 0; Ryegrass, Italian plant response rating ([15]; 500 g ai/ha): 70; Pigweed plant response rating ([16]; 125 g ai/ha): 30; Pigweed plant response rating ([16]; 500 g ai/ha): 70; Barnyardgrass plant response rating (0 to 100 scale) [17]: 90; Barnyardgrass plant response rating [17]: 100; Barnyardgrass plant response rating (0 to 100 scale) [18]: 20; Ducksalad plant response rating (0 to 100 scale) [19]: 80 |
| CC1=[N+]([O-])C(C(=O)Nc2cccc(F)n2)C(c2ccc(C(F)(F)F)cc2)C1 (racemic) [Compound 47] | 0 | 90 | 40 | 90 | 0 | 80 | 0 | 0 | 0 | 40 | 0 | 0 | 50 | 90 | 50 | 90 | 50 | 30 | 0 | 20 | Ragweed plant response rating (0 to 100 scale) ([2]; 500 g ai/ha): 100; Kochia plant response rating (0 to 100 scale) ([3]; 500 g ai/ha): 90; Foxtail, Green plant response rating (0 to 100 scale) ([4]; 500 g ai/ha): 100; Ryegrass, Italian plant response rating (0 to 100 scale) ([5]; 500 g ai/ha): 20; Pigweed plant response rating (0 to 100 scale) ([6]; 500 g ai/ha): 100; Blackgrass plant response rating ([14]; 125 g ai/ha): 0; Blackgrass plant response rating ([14]; 500 g ai/ha): 0; Ryegrass, Italian plant response rating ([15]; 125 g ai/ha): 0; Ryegrass, Italian plant response rating ([15]; 500 g ai/ha): 50; Pigweed plant response rating ([16]; 125 g ai/ha): 0; Pigweed plant response rating ([16]; 500 g ai/ha): 20; Barnyardgrass plant response rating (0 to 100 scale) [17]: 80; Barnyardgrass plant response rating [17]: 100; Barnyardgrass plant response rating (0 to 100 scale) [18]: 40; Ducksalad plant response rating (0 to 100 scale) [19]: 75 |
| CC1=[N+]([O-])[C@@H](C(=O)Nc2ccccc2F)[C@H](c2ccc(C(F)(F)F)cc2)C1 (relative stereo) [Compound 26, trans-N-(2-fluorophenyl)-3,4-dihydro-5-methyl-3-[4-(trifluoromethyl)phenyl]-2H-pyrrole-2-carboxamide 1-oxide] | 0 | 80 | 50 | 100 | 20 | 70 | 0 | 10 | 20 | 60 | 0 | 10 | 60 | 90 | 50 | 90 | 70 | 80 | 0 | 0 | Ragweed plant response rating ([2]; 500 g ai/ha, 0 to 100 scale): 90; Kochia plant response rating ([3]; 500 g ai/ha, 0 to 100 scale): 90; Foxtail, Green plant response rating ([4]; 500 g ai/ha, 0 to 100 scale): 100; Ryegrass, Italian plant response rating ([5]; 500 g ai/ha, 0 to 100 scale): 70; Pigweed plant response rating ([6]; 500 g ai/ha, 0 to 100 scale): 90; Blackgrass plant response rating ([14]; 125 g ai/ha): 20; Blackgrass plant response rating ([14]; 500 g ai/ha): 60; Ryegrass, Italian plant response rating ([15]; 125 g ai/ha): 0; Ryegrass, Italian plant response rating ([15]; 500 g ai/ha): 20; Pigweed plant response rating ([16]; 125 g ai/ha): 30; Pigweed plant response rating ([16]; 500 g ai/ha): 80; Barnyardgrass plant response rating (0 to 100 scale) [17]: 80; Barnyardgrass plant response rating [17]: 100; Barnyardgrass plant response rating (0 to 100 scale) [18]: 60; Ducksalad plant response rating (0 to 100 scale) [19]: 100 |

— patent US11498899B2, “Nitrone herbicides” (FMC Corporation, priority 2016, dated 2022)
